According to PubChem BioAssay AID1963858 (Molecular Pharmacology Branch, DTP, NCI, 2024):

Tested on: HOP-62 multicell spheroids with HUVEC/MSC, viability
Assay: Anticancer human tumor HOP-62 cell line growth inhibition [KRAS2];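 further: viability read after a week of compound exposure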;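 on viability, T/C: 100% = DMSO vehicle-treated spheroids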
Conditions: for IC50: curve of first compound; for viability, T/C: stronger effect = lower value
From the text: Multicellular complex tumor spheroid response to RAS pathway inhibitors in combination with a targeted agents in patient-derived cell lines with oncogenic KRAS variants from multiple cancer types
A high-throughput screen of multi-cell type tumor spheroids was designed to identify active combinations of targeted small molecules and KRAS pathway inhibitors. Complex spheroids include a stromal component modeled by human endothelial cells (HUVEC) and fibroblasts modeled by human mesenchymal stem cells (MSCs). The concentration ranges selected for each drug and investigational agent were based upon clinically achievable concentrations if the clinical Cmax of the agent was known.
Compounds. The drugs and investigational agents: BI-3406 (NSC825286), BAY-293 (NSC824723), batoprotafib (TNO155; NSC825523), sotorasib (AMG 510; NSC818433), MRTX1257 (NSC819558), elimusertib (BAY 1895344; NSC800525), molibresib (GSK525762; NSC774829), temuterkib (LY3214996; NSC803410), venetoclax (NSC766270), alisertib (NSC759677), olaparib (NSC753686), talazoparib (NSC767125), erdafitinib (NSC781556), ipatasertib (NSC767898), cabozantinib (NSC761068), nintedanib (NSC756659), abemaciclib (NSC768073), docetaxel (NSC628503), trametinib (NSC758246), and sapanisertib (NSC764658) were obtained from the National Cancer Institute (NCI) Developmental Therapeutics Program Chemical Repository. The FDA-approved anticancer drug set is available from the Developmental Therapeutics Program. […] The stock solutions were prepared in dimethyl sulfoxide (DMSO, Sigma-Aldrich, St. Louis, MO, cat. D2650) at 800-fold the tested concentration and stored at -70 degrees C prior to their use. All drugs and investigational agents were tested over a range starting from a high concentration at or near the clinical Cmax and decreasing in half-log increments. If the clinical Cmax for an agent had not been determined, the highest concentration tested was 10 microM.
Cell Culture. All cells were maintained in an incubator at 37 degrees C and 5% CO2 with 95% humidity. The PDC lines were cultured according to standard operating procedures established by the NCI PDMR (https://pdmr.cancer.gov/sops/default.htm). Briefly, all PDCs were thawed and cultured in Matrigel-coated flasks prepared with a working solution of 1X Ham's F-12 nutrient mix, without supplementation (Invitrogen, Waltham, MA, cat. 11765054), 100 U/mL penicillin-streptomycin (Invitrogen, cat. 15140122), and 2.5% Matrigel (Corning Inc., Corning, NY, cat. 354248) for the first three passages. All PDCs were cultured in complete DMEM/F-12 media containing advanced DMEM/F-12 (Invitrogen, cat. 12634028), 4.9% defined fetal bovine serum, heat inactivated (HyClone Laboratories Inc., Logan, UT, cat. SH30070.03HI), 389 ng/mL hydrocortisone (Sigma-Aldrich, cat. H4001), 9.7 ng/mL human EGF recombinant protein (Invitrogen, cat. PHG0313), 23.4 microg/mL adenine (Sigma-Aldrich, cat. A2786), 97.3 U/mL penicillin-streptomycin (Invitrogen, cat. 15140122), 1.9 mM L-glutamine (Invitrogen, cat. 25030081), and 9.7 microM Y-27632 dihydrochloride (Tocris Bioscience, Bristol, United Kingdom, cat. 1254). The PDCs were cultured in complete DMEM/F12 media without 9.7 microM Y-27632 dihydrochloride for at least two passages prior to the screen. The established cell line HOP-62 was cultured in RPMI 1640 medium, HEPES (Invitrogen, cat. 22400105) with 10% defined fetal bovine serum (HyClone Laboratories Inc., cat. SH30070.03) and 2 mM L-glutamine (Invitrogen, cat. 25030081). The pooled donor HUVEC were cultured in endothelial cell growth medium 2 (PromoCell, Heidelberg, Germany, cat. C-22011) and the hMSC were cultured in mesenchymal stem cell growth medium 2 (PromoCell, cat. C-28009). For all experiments, HUVEC and hMSC were used at passages </=5, while the malignant cell lines were used at passages </=15. […]

[1] = second compound 0.1 µM, first compound 0.0316 µM
[2] = second compound 0.1 µM, first compound 0.1 µM
[3] = second compound 0.1 µM, first compound 0.316 µM
[4] = second compound 0.1 µM, first compound 1 µM
[5] = second compound 0.1 µM, first compound 3.16 µM
[6] = second compound 0.1 µM, first compound 10 µM
[7] = second compound 0.316 µM, first compound 0.0316 µM
[8] = second compound 0.316 µM, first compound 0.1 µM
[9] = second compound 0.316 µM, first compound 0.316 µM
[10] = second compound 0.316 µM, first compound 1 µM
[11] = second compound 0.316 µM, first compound 3.16 µM
[12] = second compound 0.316 µM, first compound 10 µM
[13] = second compound 1 µM, first compound 0.0316 µM
[14] = second compound 1 µM, first compound 0.1 µM
[15] = second compound 1 µM, first compound 0.316 µM
[16] = second compound 1 µM, first compound 1 µM
[17] = second compound 1 µM, first compound 3.16 µM
[18] = second compound 1 µM, first compound 10 µM
[19] = second compound 3.16 µM, first compound 0.0316 µM
[20] = second compound 3.16 µM, first compound 0.1 µM
[21] = second compound 3.16 µM, first compound 0.316 µM
[22] = second compound 3.16 µM, first compound 1 µM
[23] = second compound 3.16 µM, first compound 3.16 µM
[24] = second compound 3.16 µM, first compound 10 µM
[25] = second compound 10 µM, first compound 0.0316 µM
[26] = second compound 10 µM, first compound 0.1 µM
[27] = second compound 10 µM, first compound 0.316 µM
[28] = second compound 10 µM, first compound 1 µM
[29] = second compound 10 µM, first compound 3.16 µM
[30] = second compound 10 µM, first compound 10 µM
[31] = second compound 0.0316 µM, first compound 0.000316 µM
[32] = second compound 0.0316 µM, first compound 0.001 µM
[33] = second compound 0.0316 µM, first compound 0.00316 µM
[34] = second compound 0.0316 µM, first compound 0.01 µM
[35] = second compound 0.0316 µM, first compound 0.0316 µM
[36] = second compound 0.0316 µM, first compound 0.1 µM
[37] = second compound 0.1 µM, first compound 0.000316 µM
[38] = second compound 0.1 µM, first compound 0.001 µM
[39] = second compound 0.1 µM, first compound 0.00316 µM
[40] = second compound 0.1 µM, first compound 0.01 µM
[41] = second compound 0.316 µM, first compound 0.000316 µM
[42] = second compound 0.316 µM, first compound 0.001 µM
[43] = second compound 0.316 µM, first compound 0.00316 µM
[44] = second compound 0.316 µM, first compound 0.01 µM
[45] = second compound 1 µM, first compound 0.000316 µM
[46] = second compound 1 µM, first compound 0.001 µM
[47] = second compound 1 µM, first compound 0.00316 µM
[48] = second compound 1 µM, first compound 0.01 µM
[49] = second compound 3.16 µM, first compound 0.000316 µM
[50] = second compound 3.16 µM, first compound 0.001 µM
[51] = second compound 3.16 µM, first compound 0.00316 µM
[52] = second compound 3.16 µM, first compound 0.01 µM

## COc1cc2nccc(Oc3ccc(NC(=O)C4(C(=O)Nc5ccc(F)cc5)CC4)cc3)c2cc1OC + COc1cc2nc(C)nc(NC(C)c3cc(N)cc(C(F)(F)F)c3)c2cc1OC1CCOC1
Second compound 0.1 µM
  IC50: > 10000 nM
Second compound 0.316 µM
  IC50: > 10000 nM
Second compound 1 µM
  IC50: > 10000 nM
Second compound 3.16 µM
  IC50: 901 nM
Second compound 10 µM
  IC50: 235 nM
[1]
  viability, T/C: 100%
[2]
  viability, T/C: 113%
[3]
  viability, T/C: 113%
[4]
  viability, T/C: 80.8%
[5]
  viability, T/C: 63.8%
[6]
  viability, T/C: 123%
[7]
  viability, T/C: 89.4%
[8]
  viability, T/C: 114%
[9]
  viability, T/C: 126%
[10]
  viability, T/C: 85.8%
[11]
  viability, T/C: 59.4%
[12]
  viability, T/C: 114%
[13]
  viability, T/C: 86.8%
[14]
  viability, T/C: 92.2%
[15]
  viability, T/C: 101%
[16]
  viability, T/C: 55.9%
[17]
  viability, T/C: 47%
[18]
  viability, T/C: 97.5%
[19]
  viability, T/C: 71.8%
[20]
  viability, T/C: 94.9%
[21]
  viability, T/C: 81.6%
[22]
  viability, T/C: 46%
[23]
  viability, T/C: 0.59%
[24]
  viability, T/C: 94%
[25]
  viability, T/C: 54.9%
[26]
  viability, T/C: 49.1%
[27]
  viability, T/C: 49.3%
[28]
  viability, T/C: 24.5%
[29]
  viability, T/C: 0.58%
[30]
  viability, T/C: 73%

## CC(C)n1nc(-c2ccc3oc(N)nc3c2)c2c(N)ncnc21 + C=CC(=O)N1CCN(c2nc(OCC3CCCN3C)nc3c2CCN(c2cccc4cccc(C)c24)C3)CC1CC#N
Second compound 0.0316 µM
  IC50: 0.471 nM
Second compound 0.1 µM
  IC50: < 0.316 nM
Second compound 0.316 µM
  IC50: < 0.316 nM
Second compound 1 µM
  IC50: < 0.316 nM
Second compound 3.16 µM
  IC50: < 0.316 nM
[31]
  viability, T/C: 57.1%
[32]
  viability, T/C: 37%
[33]
  viability, T/C: 23.5%
[34]
  viability, T/C: 17.5%
[35]
  viability, T/C: 12.1%
[36]
  viability, T/C: 9.28%
[37]
  viability, T/C: 36.3%
[38]
  viability, T/C: 30.6%
[39]
  viability, T/C: 14.9%
[40]
  viability, T/C: 12.8%
[1]
  viability, T/C: 11%
[2]
  viability, T/C: 8.68%
[41]
  viability, T/C: 29.9%
[42]
  viability, T/C: 19.6%
[43]
  viability, T/C: 14.9%
[44]
  viability, T/C: 10.6%
[7]
  viability, T/C: 8.56%
[8]
  viability, T/C: 7.08%
[45]
  viability, T/C: 23.1%
[46]
  viability, T/C: 16.1%
[47]
  viability, T/C: 13.3%
[48]
  viability, T/C: 9.5%
[13]
  viability, T/C: 7.25%
[14]
  viability, T/C: 5.88%
[49]
  viability, T/C: 5%
[50]
  viability, T/C: 0.34%
[51]
  viability, T/C: 2.87%
[52]
  viability, T/C: 0.44%
[19]
  viability, T/C: 0.63%
[20]
  viability, T/C: 0.48%

## COc1cc(Nc2ncc3c(n2)-c2ccc(Cl)cc2C(c2c(F)cccc2OC)=NC3)ccc1C(=O)O + C=CC(=O)N1CCN(c2nc(=O)n(-c3c(C)ccnc3C(C)C)c3nc(-c4c(O)cccc4F)c(F)cc23)C(C)C1
Second compound 0.1 µM
  IC50: < 31.6 nM
Second compound 0.316 µM
  IC50: < 31.6 nM
Second compound 1 µM
  IC50: < 31.6 nM
Second compound 3.16 µM
  IC50: < 31.6 nM
Second compound 10 µM
  IC50: < 31.6 nM
[1]
  viability, T/C: 35.3%
[2]
  viability, T/C: 29.2%
[3]
  viability, T/C: 23.2%
[4]
  viability, T/C: 23.4%
[5]
  viability, T/C: 23.3%
[6]
  viability, T/C: 16.6%
[7]
  viability, T/C: 42.6%
[8]
  viability, T/C: 31.5%
[9]
  viability, T/C: 31.8%
[10]
  viability, T/C: 32.6%
[11]
  viability, T/C: 21.8%
[12]
  viability, T/C: 20%
[13]
  viability, T/C: 27.6%
[14]
  viability, T/C: 38.6%
[15]
  viability, T/C: 35.4%
[16]
  viability, T/C: 31.6%
[17]
  viability, T/C: 27.7%
[18]
  viability, T/C: 21.9%
[19]
  viability, T/C: 37.6%
[20]
  viability, T/C: 36.7%
[21]
  viability, T/C: 34%
[22]
  viability, T/C: 33.7%
[23]
  viability, T/C: 28.7%
[24]
  viability, T/C: 22%
[25]
  viability, T/C: 39.2%
[26]
  viability, T/C: 32.3%
[27]
  viability, T/C: 31.9%
[28]
  viability, T/C: 33%
[29]
  viability, T/C: 33.4%
[30]
  viability, T/C: 25.5%

## CN(C)C/C=C/C(=O)Nc1cc2c(Nc3ccc(F)c(Cl)c3)ncnc2cc1O[C@H]1CCOC1 + C=CC(=O)N1CCN(c2nc(OCC3CCCN3C)nc3c2CCN(c2cccc4cccc(C)c24)C3)CC1CC#N
Second compound 0.0316 µM
  IC50: > 100 nM
Second compound 0.1 µM
  IC50: > 100 nM
Second compound 0.316 µM
  IC50: 4.39 nM
Second compound 1 µM
  IC50: < 0.316 nM
Second compound 3.16 µM
  IC50: < 0.316 nM
[31]
  viability, T/C: 111%
[32]
  viability, T/C: 105%
[33]
  viability, T/C: 94.9%
[34]
  viability, T/C: 86%
[35]
  viability, T/C: 99.3%
[36]
  viability, T/C: 89.6%
[37]
  viability, T/C: 69%
[38]
  viability, T/C: 75.4%
[39]
  viability, T/C: 67.1%
[40]
  viability, T/C: 61.5%
[1]
  viability, T/C: 67.4%
[2]
  viability, T/C: 61.2%
[41]
  viability, T/C: 57.4%
[42]
  viability, T/C: 52.6%
[43]
  viability, T/C: 49.4%
[44]
  viability, T/C: 48.8%
[7]
  viability, T/C: 46.8%
[8]
  viability, T/C: 42.1%
[45]
  viability, T/C: 42.8%
[46]
  viability, T/C: 44.9%
[47]
  viability, T/C: 41%
[48]
  viability, T/C: 37%
[13]
  viability, T/C: 31.5%
[14]
  viability, T/C: 32.2%
[49]
  viability, T/C: 22.5%
[50]
  viability, T/C: 0.2%
[51]
  viability, T/C: 3.5%
[52]
  viability, T/C: 6.01%
[19]
  viability, T/C: 17.6%
[20]
  viability, T/C: 13.5%
